From US8173771B2, “Humanin receptor or humanin-like polypeptide receptor” (Keio Univeristy, priority 2005, dated 2012)
Peptide text beside a SMILES is read from it.

Target: T1, HN receptor (HNR; CNTF-R/WSX-1/gp130) on F11 cells (Mus musculus, UniProt O70394+O88507)
T1 construct: endogenous in cells; host or cells: F11 neurohybrid cells
T1 sequence (O70394 25-623): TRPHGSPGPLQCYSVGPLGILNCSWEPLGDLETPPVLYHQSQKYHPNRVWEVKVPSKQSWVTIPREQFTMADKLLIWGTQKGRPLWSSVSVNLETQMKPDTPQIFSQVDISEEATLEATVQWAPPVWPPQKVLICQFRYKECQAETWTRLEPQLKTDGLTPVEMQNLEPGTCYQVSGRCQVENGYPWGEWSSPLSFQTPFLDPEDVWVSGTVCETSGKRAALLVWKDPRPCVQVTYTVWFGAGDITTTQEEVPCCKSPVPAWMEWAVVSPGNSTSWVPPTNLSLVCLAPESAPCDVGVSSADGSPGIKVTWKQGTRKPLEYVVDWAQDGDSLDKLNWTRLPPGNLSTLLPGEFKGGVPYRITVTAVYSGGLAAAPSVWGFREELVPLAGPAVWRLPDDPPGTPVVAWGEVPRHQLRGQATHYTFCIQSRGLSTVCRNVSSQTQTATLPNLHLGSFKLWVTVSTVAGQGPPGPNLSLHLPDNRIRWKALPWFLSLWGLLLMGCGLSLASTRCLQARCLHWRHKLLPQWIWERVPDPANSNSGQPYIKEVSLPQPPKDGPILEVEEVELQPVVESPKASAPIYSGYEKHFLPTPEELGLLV
T1 sequence (O88507 23-342): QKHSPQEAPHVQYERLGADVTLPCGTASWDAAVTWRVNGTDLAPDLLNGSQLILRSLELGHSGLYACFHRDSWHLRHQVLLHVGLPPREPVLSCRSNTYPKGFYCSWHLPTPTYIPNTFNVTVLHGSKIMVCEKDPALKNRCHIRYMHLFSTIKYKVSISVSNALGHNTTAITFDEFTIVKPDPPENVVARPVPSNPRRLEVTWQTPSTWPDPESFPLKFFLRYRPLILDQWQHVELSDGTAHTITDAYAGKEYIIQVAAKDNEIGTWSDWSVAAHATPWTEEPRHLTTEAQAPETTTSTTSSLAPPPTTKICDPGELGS
T1 sequence (Q00560 23-917 partner): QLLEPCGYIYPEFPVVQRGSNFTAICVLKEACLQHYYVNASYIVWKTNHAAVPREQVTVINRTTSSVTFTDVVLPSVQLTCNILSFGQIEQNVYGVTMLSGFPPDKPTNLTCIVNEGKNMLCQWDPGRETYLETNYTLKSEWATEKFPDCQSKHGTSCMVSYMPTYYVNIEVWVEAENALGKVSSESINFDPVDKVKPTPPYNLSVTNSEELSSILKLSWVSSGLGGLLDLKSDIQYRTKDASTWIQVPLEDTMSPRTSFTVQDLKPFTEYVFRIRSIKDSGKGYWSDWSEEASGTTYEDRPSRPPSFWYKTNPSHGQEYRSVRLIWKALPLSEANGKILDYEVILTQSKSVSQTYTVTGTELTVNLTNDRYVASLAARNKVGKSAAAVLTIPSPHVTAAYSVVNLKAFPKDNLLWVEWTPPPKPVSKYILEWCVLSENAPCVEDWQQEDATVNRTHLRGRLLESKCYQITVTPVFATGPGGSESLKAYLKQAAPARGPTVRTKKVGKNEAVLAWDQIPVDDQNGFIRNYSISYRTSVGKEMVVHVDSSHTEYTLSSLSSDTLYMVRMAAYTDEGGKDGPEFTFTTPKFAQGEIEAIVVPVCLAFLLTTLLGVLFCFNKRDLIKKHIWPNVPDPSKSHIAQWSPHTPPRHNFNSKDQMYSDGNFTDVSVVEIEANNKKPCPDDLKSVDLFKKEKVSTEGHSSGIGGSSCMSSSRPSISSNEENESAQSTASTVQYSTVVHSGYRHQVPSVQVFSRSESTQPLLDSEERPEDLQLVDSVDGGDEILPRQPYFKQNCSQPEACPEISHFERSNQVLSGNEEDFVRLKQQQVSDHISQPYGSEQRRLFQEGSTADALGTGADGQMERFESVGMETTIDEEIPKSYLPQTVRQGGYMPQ
Assay: Immunofluorescence-based binding assay (2): biotin-HN / biotin-HNG binding to F11 cells
Protocol: A) F11 cells were seeded on 96-well plates coated with poly-L-lysine (7×10^3 cells/well). An indicated amount of biotin-HN or biotin-HNG was added to the cells with or without 10 μM of unlabelled HNG or HNA, followed by a binding assay based on immunofluorescence reaction (2) (left panels). On the other hand, F11 cells were transfected with 0.5 μg of pcDNA3.1/GS-human CNTF-R, pEF1/MycHis-human WSX-1, and 1.0 μg of pCAG-human gp130. At 24 hrs after the transfection, the cells were re-seeded on 96-well plates coated with poly-L-lysine (7×10^3 cells/well). After 36 hrs the re-seeding, an indicated amount of biotin-HN or biotin-HNG was added to the cells with or without 10 μM of unlabeled HNG or HNA, followed by a binding assay based on immunofluorescence reaction (2) (right panels).
B) F11 cells were transfected with 0.5 μg of pRNA-U1.6/Shuttle vector, pRNA-U6.1/Shuttle-WSX-1 siRNA, pRNA-U6.1/Shuttle-CNTF-R siRNA, both pRNA-U6.1/Shuttle-WSX-1 siRNA and pRNA-U6.1/Shuttle-CNTF-R siRNA (0.5 μg each), pRNA-U6.1/Shuttle-FPR2 siRNA or pRNA-U6.1/Shuttle-LIFR siRNA. The total amount of vectors was adjusted to be 1.0 μg by including a backbone vector. At 24 hrs after the transfection, an indicated amount of biotin-HNG was added with or without unlabeled HNG, followed by a binding assay based on immunofluorescence reaction (2) at 72 hrs after the transfection.
E) F11 cells on 6-well plate (7×10^4 cells/well) were transfected with 1.0 μg of pRNA-U6.1/Shuttle vector, pRNA-U6.1/Shuttle-Bax siRNA, or both pRNA-U6.1/Shuttle-WSX-1 siRNA and pRNA-U6.1/Shuttle-CNTF-R siRNA (0.5 μg each). At 72 hrs after the transfection, the cells were added with an indicated amount of biotin-HN with or without unlabeled HN or HNA (100 μM) and subjected to an HN-binding assay based on immunofluorescence.
F11 cells (7×10^4/well in 6-well plates) were replated into 96-well plates (7×10^3 cells/well) at 24 hrs after transfection with indicated amounts of the plasmids encoding mycHis-WSX or V5-CNTF-R, and with PCAG-human gp130 if required. At 36 hrs after transfection, the cells were added with biotin-labeled HN or HNG of indicated concentrations in the presence or the absence of HNG (S14G-HN) or HNA (C8A-HN) of indicated concentrations (Hashimoto et al., 2001 a). After 6 hrs incubation, they were fixed with 4% paraformaldehyde in PBS for 30 min. After washing with PBS, cells were stained with FITC-conjugated avidin (Molecularprobe, Eugene, Oreg., USA). Immunofluorescence intensity was measured (excitation=485 nm, emission=535 nm) with a spectrofluorometer (Wallac1420 ARVOsx Multi Label Counter). Immunohistochemical analysis was done with a laser-scanning, confocal microscope LSM (Carl Zeiss, Germany).

- concentration of saturation of binding (biotin-HNG, concentration-dependent binding): 10 nM
- binding to F11 cells (expression of FPR2 or LIFR decreased by siRNA): not be affected
- inhibition of binding by over-addition of unlabeled peptide (specificity of binding): almost completely inhibit
SMILES: CC[C@H](C)[C@H](NC(=O)[C@H](CCC(=O)O)NC(=O)CNC(=O)[C@@H](NC(=O)[C@H](CC(C)C)NC(=O)[C@H](CC(C)C)NC(=O)[C@H](CC(C)C)NC(=O)[C@H](CC(C)C)NC(=O)[C@H](CS)NC(=O)[C@H](CO)NC(=O)[C@H](Cc1ccccc1)NC(=O)CNC(=O)[C@H](CCCNC(=N)N)NC(=O)[C@@H]1CCCN1C(=O)[C@H](C)NC(=O)[C@@H](N)CCSC)[C@@H](C)O)C(=O)N[C@@H](CC(=O)O)C(=O)N[C@@H](CC(C)C)C(=O)N1CCC[C@H]1C(=O)N[C@H](C(=O)N[C@@H](CCCCN)C(=O)N[C@@H](CCCNC(=N)N)C(=O)N[C@@H](CCCNC(=N)N)C(=O)N[C@@H](C)C(=O)O)C(C)C [HNG, S14 G-Humanin] (H-MAPRGFSCLLLLTGEIDLPVKRRA-OH; N-terminus and C-terminus assumed)
